{"source": "the supplement of paper PMC10307832", "assay_in_all_cases": "relative viability (nuclei count vs DMSO), 5 days (fraction); higher = more cells survive", "key": {"[1]": {"tested_on": "HCC-15", "procedure,_shortened": "(§1)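 Nuclei were stained with Hoechst during a one-step fixation (final 0.05% Triton X-100, 1% formaldehyde, 1 ug/ml Hoechst) carried out 5 days after dosing, then counted on 4× images. The cells, lung cancer lines in 1536-well plates, had been dosed by pin tool the day after seeding with one drug alone or a fixed anchor-drug dose plus five library-drug doses (not always all listed) in √10 steps. Relative viability is the nuclei count in treated wells divided by that in vehicle wells, and each value is the median of duplicate plates.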"}, "[2]": {"tested_on": "UMC-11", "procedure,_shortened": "as §1"}, "[3]": {"tested_on": "LCLC-103H", "procedure,_shortened": "as §1"}, "[4]": {"tested_on": "NCI-H1623", "procedure,_shortened": "as §1"}, "[5]": {"tested_on": "NCI-H522", "procedure,_shortened": "as §1"}, "[6]": {"tested_on": "NCI-H1299", "procedure,_shortened": "as §1"}, "[7]": {"tested_on": "A549", "procedure,_shortened": "as §1"}, "[8]": {"tested_on": "Calu-6", "procedure,_shortened": "as §1"}, "[9]": {"tested_on": "IA-LM", "procedure,_shortened": "as §1"}, "[10]": {"tested_on": "NCI-H1703", "procedure,_shortened": "as §1"}, "[11]": {"tested_on": "NCI-H1648", "procedure,_shortened": "as §1"}, "[12]": {"tested_on": "EBC-1", "procedure,_shortened": "as §1"}}}
{"smiles": "NC(=O)Nc1cc(-c2cccc(F)c2)sc1C(=O)N[C@H]1CCCNC1", "note": "[AZD7762] + CCNC(=O)c1noc(-c2cc(C(C)C)c(O)cc2O)c1-c1ccc(CN2CCOCC2)cc1 [Luminespib] (partner 0.01 µM)", "values": [{"measurement": "relative viability", "setting": "[1]; first compound 0.01 µM", "value": 0.309}, {"measurement": "relative viability", "setting": "[1]; first compound 0.03162 µM", "value": 0.304}, {"measurement": "relative viability", "setting": "[1]; first compound 0.1 µM", "value": 0.234}, {"measurement": "relative viability", "setting": "[1]; first compound 0.3162 µM", "value": 0.163}, {"measurement": "relative viability", "setting": "[1]; first compound 1 µM", "value": 0.315}, {"measurement": "relative viability", "setting": "[2]; first compound 0.01 µM", "value": 1.14}, {"measurement": "relative viability", "setting": "[2]; first compound 0.03162 µM", "value": 0.999}, {"measurement": "relative viability", "setting": "[2]; first compound 0.1 µM", "value": 1.09}, {"measurement": "relative viability", "setting": "[2]; first compound 0.3162 µM", "value": 0.593}, {"measurement": "relative viability", "setting": "[2]; first compound 1 µM", "value": 0.384}, {"measurement": "relative viability", "setting": "[3]; first compound 0.01 µM", "value": 1.06}, {"measurement": "relative viability", "setting": "[3]; first compound 0.03162 µM", "value": 0.932}, {"measurement": "relative viability", "setting": "[3]; first compound 0.1 µM", "value": 1.01}, {"measurement": "relative viability", "setting": "[3]; first compound 0.3162 µM", "value": 0.943}, {"measurement": "relative viability", "setting": "[3]; first compound 1 µM", "value": 0.953}, {"measurement": "relative viability", "setting": "[4]; first compound 0.01 µM", "value": 0.421}, {"measurement": "relative viability", "setting": "[4]; first compound 0.03162 µM", "value": 0.591}, {"measurement": "relative viability", "setting": "[4]; first compound 0.1 µM", "value": 0.602}, {"measurement": "relative viability", "setting": "[4]; first compound 0.3162 µM", "value": 0.604}, {"measurement": "relative viability", "setting": "[4]; first compound 1 µM", "value": 0.418}, {"measurement": "relative viability", "setting": "[5]; first compound 0.01 µM", "value": 1.14}, {"measurement": "relative viability", "setting": "[5]; first compound 0.03162 µM", "value": 1.23}, {"measurement": "relative viability", "setting": "[5]; first compound 0.1 µM", "value": 1.14}, {"measurement": "relative viability", "setting": "[5]; first compound 0.3162 µM", "value": 1.35}, {"measurement": "relative viability", "setting": "[5]; first compound 1 µM", "value": 1}]}
{"smiles": "NC(=O)Nc1cc(-c2cccc(F)c2)sc1C(=O)N[C@H]1CCCNC1", "note": "[AZD7762] + Cc1nc(Nc2ncc(C(=O)Nc3c(C)cccc3Cl)s2)cc(N2CCN(CCO)CC2)n1 [Dasatinib] (partner 0.075 µM)", "values": [{"measurement": "relative viability", "setting": "[1]; first compound 0.01 µM", "value": 0.582}, {"measurement": "relative viability", "setting": "[1]; first compound 0.03162 µM", "value": 0.592}, {"measurement": "relative viability", "setting": "[1]; first compound 0.1 µM", "value": 0.592}, {"measurement": "relative viability", "setting": "[1]; first compound 0.3162 µM", "value": 0.561}, {"measurement": "relative viability", "setting": "[1]; first compound 1 µM", "value": 0.52}, {"measurement": "relative viability", "setting": "[2]; first compound 0.01 µM", "value": 0.516}, {"measurement": "relative viability", "setting": "[2]; first compound 0.03162 µM", "value": 0.447}, {"measurement": "relative viability", "setting": "[2]; first compound 0.1 µM", "value": 0.407}, {"measurement": "relative viability", "setting": "[2]; first compound 0.3162 µM", "value": 0.392}, {"measurement": "relative viability", "setting": "[2]; first compound 1 µM", "value": 0.215}, {"measurement": "relative viability", "setting": "[3]; first compound 0.01 µM", "value": 0.555}, {"measurement": "relative viability", "setting": "[3]; first compound 0.03162 µM", "value": 0.463}, {"measurement": "relative viability", "setting": "[3]; first compound 0.1 µM", "value": 0.422}, {"measurement": "relative viability", "setting": "[3]; first compound 0.3162 µM", "value": 0.515}, {"measurement": "relative viability", "setting": "[3]; first compound 1 µM", "value": 0.284}, {"measurement": "relative viability", "setting": "[4]; first compound 0.01 µM", "value": 0.471}, {"measurement": "relative viability", "setting": "[4]; first compound 0.03162 µM", "value": 0.558}, {"measurement": "relative viability", "setting": "[4]; first compound 0.1 µM", "value": 0.615}, {"measurement": "relative viability", "setting": "[4]; first compound 0.3162 µM", "value": 0.482}, {"measurement": "relative viability", "setting": "[4]; first compound 1 µM", "value": 0.482}, {"measurement": "relative viability", "setting": "[5]; first compound 0.01 µM", "value": 0.923}, {"measurement": "relative viability", "setting": "[5]; first compound 0.03162 µM", "value": 0.919}, {"measurement": "relative viability", "setting": "[5]; first compound 0.1 µM", "value": 0.76}, {"measurement": "relative viability", "setting": "[5]; first compound 0.3162 µM", "value": 0.933}, {"measurement": "relative viability", "setting": "[5]; first compound 1 µM", "value": 0.946}]}
{"smiles": "NC(=O)Nc1cc(-c2cccc(F)c2)sc1C(=O)N[C@H]1CCCNC1", "note": "[AZD7762] + O=C(c1cc(Cc2n[nH]c(=O)c3ccccc23)ccc1F)N1CCN(C(=O)C2CC2)CC1 [Olaparib] (partner 8 µM)", "values": [{"measurement": "relative viability", "setting": "[6]; first compound 0.01 µM", "value": 1.02}, {"measurement": "relative viability", "setting": "[6]; first compound 0.03162 µM", "value": 1}, {"measurement": "relative viability", "setting": "[6]; first compound 0.1 µM", "value": 0.954}, {"measurement": "relative viability", "setting": "[6]; first compound 0.3162 µM", "value": 0.688}, {"measurement": "relative viability", "setting": "[6]; first compound 1 µM", "value": 0.312}, {"measurement": "relative viability", "setting": "[1]; first compound 0.01 µM", "value": 0.824}, {"measurement": "relative viability", "setting": "[1]; first compound 0.03162 µM", "value": 0.948}, {"measurement": "relative viability", "setting": "[1]; first compound 0.1 µM", "value": 0.898}, {"measurement": "relative viability", "setting": "[1]; first compound 0.3162 µM", "value": 1.04}, {"measurement": "relative viability", "setting": "[1]; first compound 1 µM", "value": 0.983}, {"measurement": "relative viability", "setting": "[7]; first compound 0.01 µM", "value": 0.37}, {"measurement": "relative viability", "setting": "[7]; first compound 0.03162 µM", "value": 0.387}, {"measurement": "relative viability", "setting": "[7]; first compound 0.1 µM", "value": 0.381}, {"measurement": "relative viability", "setting": "[7]; first compound 0.3162 µM", "value": 0.481}, {"measurement": "relative viability", "setting": "[7]; first compound 1 µM", "value": 0.155}, {"measurement": "relative viability", "setting": "[8]; first compound 0.01 µM", "value": 0.636}, {"measurement": "relative viability", "setting": "[8]; first compound 0.03162 µM", "value": 0.47}, {"measurement": "relative viability", "setting": "[8]; first compound 0.1 µM", "value": 0.375}, {"measurement": "relative viability", "setting": "[8]; first compound 0.3162 µM", "value": 0.166}, {"measurement": "relative viability", "setting": "[8]; first compound 1 µM", "value": 0.109}, {"measurement": "relative viability", "setting": "[9]; first compound 0.01 µM", "value": 1.07}, {"measurement": "relative viability", "setting": "[9]; first compound 0.03162 µM", "value": 0.796}, {"measurement": "relative viability", "setting": "[9]; first compound 0.1 µM", "value": 0.891}, {"measurement": "relative viability", "setting": "[9]; first compound 0.3162 µM", "value": 0.655}, {"measurement": "relative viability", "setting": "[9]; first compound 1 µM", "value": 0.171}, {"measurement": "relative viability", "setting": "[2]; first compound 0.01 µM", "value": 0.819}, {"measurement": "relative viability", "setting": "[2]; first compound 0.03162 µM", "value": 0.342}, {"measurement": "relative viability", "setting": "[2]; first compound 0.1 µM", "value": 0.277}, {"measurement": "relative viability", "setting": "[2]; first compound 0.3162 µM", "value": 0.256}, {"measurement": "relative viability", "setting": "[2]; first compound 1 µM", "value": 0.255}, {"measurement": "relative viability", "setting": "[3]; first compound 0.01 µM", "value": 0.827}, {"measurement": "relative viability", "setting": "[3]; first compound 0.03162 µM", "value": 0.705}, {"measurement": "relative viability", "setting": "[3]; first compound 0.1 µM", "value": 0.733}, {"measurement": "relative viability", "setting": "[3]; first compound 0.3162 µM", "value": 0.772}, {"measurement": "relative viability", "setting": "[3]; first compound 1 µM", "value": 0.714}, {"measurement": "relative viability", "setting": "[10]; first compound 0.01 µM", "value": 0.305}, {"measurement": "relative viability", "setting": "[10]; first compound 0.03162 µM", "value": 0.214}, {"measurement": "relative viability", "setting": "[10]; first compound 0.1 µM", "value": 0.206}, {"measurement": "relative viability", "setting": "[10]; first compound 0.3162 µM", "value": 0.168}, {"measurement": "relative viability", "setting": "[10]; first compound 1 µM", "value": 0.12}, {"measurement": "relative viability", "setting": "[11]; first compound 0.01 µM", "value": 0.639}, {"measurement": "relative viability", "setting": "[11]; first compound 0.03162 µM", "value": 0.994}, {"measurement": "relative viability", "setting": "[11]; first compound 0.1 µM", "value": 0.751}, {"measurement": "relative viability", "setting": "[11]; first compound 0.3162 µM", "value": 0.934}, {"measurement": "relative viability", "setting": "[11]; first compound 1 µM", "value": 0.61}, {"measurement": "relative viability", "setting": "[12]; first compound 0.01 µM", "value": 0.848}, {"measurement": "relative viability", "setting": "[12]; first compound 0.03162 µM", "value": 0.915}, {"measurement": "relative viability", "setting": "[12]; first compound 0.1 µM", "value": 0.872}, {"measurement": "relative viability", "setting": "[12]; first compound 0.3162 µM", "value": 0.717}, {"measurement": "relative viability", "setting": "[12]; first compound 1 µM", "value": 0.451}, {"measurement": "relative viability", "setting": "[5]; first compound 0.01 µM", "value": 0.711}, {"measurement": "relative viability", "setting": "[5]; first compound 0.03162 µM", "value": 0.631}, {"measurement": "relative viability", "setting": "[5]; first compound 0.1 µM", "value": 0.676}, {"measurement": "relative viability", "setting": "[5]; first compound 0.3162 µM", "value": 0.59}, {"measurement": "relative viability", "setting": "[5]; first compound 1 µM", "value": 0.632}]}
